Experimental findings from US6458962B1, “Sultams: catalyst systems for asymmetric reduction of a C=N intermediate biological compositions and methods for making the sultams” (The University of Tennesseee Research Corporation, priority 1999, dated 2002) are described below.

Molecules are shown by their SMILES.

One data set relates to HIV-1. The data set is described as follows: Anti-HIV-1 activity, National Cancer Institute protocol (Weislow et al.). Format: cell-based. The following applies: for EC50: Human immunodeficiency virus 1, read-out: ECSO; for TLSO: ratio IC50/EC50, NCI protocol. The procedure:
(§1) The sultams of the invention were tested in accordance with the National Cancer Institute Protocol, Weislow, O. W., et al. (1989) J. Natl. Cancer Inst. 81:577-586, which is incorporated herein by reference. The protocol is also described in U.S. Pat. No. 5,843,990.
The anti-HIV activity of compounds of the invention illustrated by the formula V shown above, is reported below.
Table III illustrates anti-HIV-1 activities of compounds of the invention, the substituents (shown in formula V).

The nature of data set [1]: IC50 in the National Cancer Institute anti-HIV protocol (Weislow et al.), used with EC50 for the TI50. Format: cell-based. The following applies: NCI protocol; read-out: ICSO. The protocol:
as §1

With `Cc1cccc(C2c3ccccc3S(=O)(=O)N2C)c1` (single isomer, unassigned; (+)) [Compound 7, (+)-2-Methyl-3-(3-methylphenyl)-2,3-dihydrobenzo[d] isothiazole 1,1-Dioxide], the melting point (commonly the temperature of the solid-liquid transition) is 154 °C. In the data set with HIV-1, the EC50 is 37 nM and the TLSO is listed as more than 54. Besides, the IC50 in data set [1] is more than 2 µM.
In the same order, the values of `CN1C(c2cccc(F)c2)c2ccccc2S1(=O)=O` (single isomer, unassigned; (+)) [Compound 13, (+)-3-(3-Fluorophenyl)-2-methyl-2,3-dihydrobenzo[d]isothiazole 1,1-Dioxide] are 147 °C, 179 nM, 538 and 147 µM.
On the same counts, the results for `Cc1ccccc1C1c2ccccc2S(=O)(=O)N1C` (single isomer, unassigned; (+)) [Compound 18, (+)-2-Methyl-3-(2-methylphenyl)-2,3-dihydrobenzo[d]isothiazole 1,1-Dioxide] are 152 °C, 4680 nM, 26.3 and 123 µM.
In the same order, the values of `CN1[C@@H](c2ccccc2)c2ccccc2S1(=O)=O` [Compound 5, (+)-(S)-2-Methyl-3-phenyl-2,3-dihydrobenzo[d]isothiazole 1,1-Dioxide] are 156 to 157 °C, 471 nM, more than 674 and more than 316 µM.
For `CN1[C@@H](c2cccc(Br)c2)c2ccccc2S1(=O)=O` [Compound 9, (+)-(S)-3-(3-Bromophenyl)-2-methyl-2,3-dihydrobenzo[d]isothiazole 1,1-Dioxide], the melting point came to 157 °C. Besides, in the data set on HIV-1, the EC50 was found to be 74 nM and the TLSO was determined as 136.5. Further, the IC50 in data set [1] was 101 µM.
In the same order, the values of `CN1[C@@H](c2cccc(Cl)c2)c2ccccc2S1(=O)=O` [Compound 11, (+)-(S)-3-(3-Chlorophenyl)-2-methyl-2,3-dihydrobenzo[d]isothiazole 1,1-Dioxide] are 164 °C, 86 nM, more than 31 and more than 2 µM.
`CN1[C@@H](c2cccc(I)c2)c2ccccc2S1(=O)=O` [Compound 15, (+)-(S)-2-Methyl-3-(3-iodophenyl)-2,3-dihydrobenzo[d]isothiazole 1,1-Dioxide] had a melting point of 156 °C. Moreover, in the data set on HIV-1, the EC50 was 76 nM and the TLSO came out at 817. Further, in data set [1], the IC50 was 62.4 µM.
